Measured values reported in patent US20230057984A1, “NORMALIZATION OF CULTURE OF CORNEAL ENDOTHELIAL CELLS” (KYOTO PREFECTURAL PUBLIC UNIVERSITY CORPORATION, priority 2011, published 2023).

Legend:
HCEC = test: Consecutive treatments of cultured HCEC over several passages, observation of harmful effects; details: even after several passages
[1] = test system: Human corneal endothelial cells; test: Quantitative PCR of collagen type 1 and fibronectin in HCEC; type: cell-based; details: SB431542 1 μM, normalized with GAPDH, relative to control
Method: Amplified DNA fragments were electrophoresed with 1.5% agarose gel (Nacalai Tesque, catalog number:01149-76), and detected by staining with ethidium bromide (Nacalai Tesque, catalog number: 14603-51). • Quantitative PCR was performed using the following TaqMan (registered trademark) (Invitrogen) primers. collagen type 1: Hs00164004_m1; fibronectin: Hs01549976_m1; GAPDH: Hs00266705_g1. The PCR was performed using a StepOne™ (Applied Biosystems) real-time PCR system. The GAPDH was used as an internal standard.

[2] = test system: Cynomolgus monkey corneal endothelial cells; test: Culture of monkey corneal endothelial cells with SB431542, cell form by phase-contrast microscope (Example 2); type: cell-based; details: primate CEC primary culture, base culture medium with 1 μmol/l SB431542; control showed fibroblast phenotype
Method: • Cynomolgus monkey corneal endothelial cells (MCEC; source of supply and culturing method): the MCECs were cultured by the improved-type protocol described previously [Koizumi N, et al. (2007) Invest Ophthalmol Vis Sci 48: 4519-4526], [Li W, et al. (2007) Invest Ophthalmol Vis Sci 48: 614-620]. Briefly speaking, eyeballs of cynomolgus monkeys, which were humanely killed for another purpose, were purchased (Nissei Bilis Co., Ltd., Ohtsu, Japan and Keari Co., Ltd., Wakayama, Japan) (the method is described above). The Descemet's membrane including corneal endothelial cells were exfoliated, and the corneal endothelial cells were mechanically exfoliated together with basement membranes, followed by treatment using dispase or collagenase (ROCHE catalog number: 10 103 586 001) and then primary culture. Typically, treatment was performed using 1 mg/mL collagenase A (Roche Applied Science, Penzberg, Germany) at 37° C. for 2 hours. For the culture medium, DMEM (INVITROGEN catalog number 12320) was used with 10% FBS (BIOWEST, catalog number: S1820-500) and 2 ng/ml basic FGF (INVITROGEN, catalog number: 13256-029) added thereto. […] In addition, after the cells were fixed, immunostaining was performed using ZO-1, Na^+/K^+-ATPase as a function-associated marker, followed by observation through a fluorescence microscope. […]

With `NC(=O)c1ccc(-c2nc(-c3ccc4c(c3)OCO4)c(-c3ccccn3)[nH]2)cc1` [SB431542] the “harmful effects with regard to the forms or functions” value (HCEC) was “not seen any clear, harmful effects”, the “expression of collagen type 1 at mRNA level (quantitative PCR)” value [1] was “significantly decreased” and the “expression of fibronectin at mRNA level (quantitative PCR)” value [1] was “significantly decreased”. The “cell form in phase difference images” value [2] was “a true shape of a polygonal cell and a single layer of a contact inhibition type”.
